Assay: Lipid Peroxidation (LPO) assay
Assay type: biochemical
Conditions: 2% linoleic acid + 1% trolox in methanol, solar simulator UV dose 36x10^4 J/m^2; FIG. 2 column 2, negative control
Text: Lipids are present in the cell membrane bilayer. Peroxidation of lipids compromises the integrity of skin cells and […] the ageing process resulting in premature ageing. The LPO assay is designed to determine the level of LPO damage in the skin with and without external stresses such as UV exposure; and investigating whether early defence complex can protect against the UV induced LPO damage. K-assay LPO-CC004 lipid peroxidation kit (Kamiya biomedical company)˜500 assays containing— • Reagent 1 (liquid): Enzyme reagent (ascorbic oxidase, lipoprotein lipase, stabilizer, goods buffer, surfactants) • Reagent 2A: Lyophilised chromogen reagent (MCDP for 110 ml reagent 2B) • Reagent 2B: Buffer solution (liquid) (goods buffer, hemoglobin, surfactants) • Calibrator (liquid): (50 nmol/ml cumene hyderoperoxide) • D-squames (CuDerm Corp. Dalla, USA) • Linoleic acid (L.A) • Methanol (MeOH) • Deionised water (dH2O) • 96 well flat bottom clear plate • Plate reader Unless otherwise stated all the samples were prepared weight per volume in methanol. […] Absorbance was read at 675 nm. For each well, the methanol background reading was subtracted from the absorbance reading. […] As samples were run in triplicate, the mean of each sample was then calculated. […]

Cc1c(C)c2c(c(C)c1O)CCC(C)(C(=O)O)O2 (stereo not shown) [Trolox]
oxidation (lipid peroxidation, absorbance at 675 nm): very low oxidation
